Test results published in patent US10080739B2, “Aryl imidazoles and their use as anti-cancer agents” (Aptose Biosciences Inc., priority 2003, dated 2018).

Tests used:
[1] = molecular target: T1, Met (Homo sapiens, UniProt P08581); test: kinase profiler, Met; type: biochemical; settings: 10 μM compound, 100 μM ATP, mean of % control
T1 construct: purchased Upstate Biotechnologies (kinase profiler service)
Protocol: (§1) Compound 45 was tested for its ability to function as a kinase inhibitor using the kinase profiler service from Upstate Biotechnologies. The general protocol employed is as follows: recombinant kinases were incubated with specific substrates, 10 mM MgAcetate, and [γ-^33P-ATP]. The reaction was initiated by the addition of MgATP mix. After incubation at room temperature for 40 minutes, the reaction was stopped by the addition of 5 μl of a 3% phosphoric acid solution. 10 μl of the reaction was then spotted on to a P30 filtermat and washed 3 times for 5 min. in 75 mM phosphoric acid and once in methanol prior to drying and scintillation counting. Each reaction was performed in duplicate with 100 μM ATP −/+10 μM compound 45. Results are presented in Table IV and are expressed as the mean of % control (no compound). PI 3-kinase-γ (PI3K-γ) activity was determined with the PIProfiler™ assay, which measures the binding of the GRP1 pleckstrin homology (PH) domain to PIP3, the product of PI3K acting on its physiological substrate PIP2.

[2] = test system: human colon carcinoma cells (HT-29); test: XTT cell proliferation assay, HT-29 cells, 48 h; type: cell-based; settings: read-out: % Survival
Protocol: Selected compounds of Formula I were tested for anti-cancer activity in vitro using a human colon carcinoma cells (HT-29) and human non-small cell lung cancer cells (H460). The cells were maintained in α-MEM medium (Wisent, St-Bruno, Qc) supplemented with 10% FBS, and grown at 37° C. in an atmosphere of 5% CO2. Cells were transferred onto 150 mm tissue culture plates and grown until sub-confluency (70-80%) prior to their use.
The anti-cancer activity in vitro was evaluated by a cell proliferation assay based on the ability of live cells to reduce the tetrazolium salt XTT to orange coloured compounds of formazan (XTT cell proliferation kit II, Roche Applied Science, Montreal, QC).
Approximately 4×10^3 colon cancer cells (HT-29) or 2×10^3 non-small cell lung cancer cells (NCI-H460) in 100 μl of complete culture medium were plated onto 96-well microtiter plates and incubated overnight at 37° C. The medium was then removed by inverting the plate and patting on a sterile absorbent cloth. Fifty μl of medium containing the test compound at either 25 or 100 μM, were added to the wells containing cells and incubated at 37° C. in an atmosphere of 5% CO2 for 48 h. Following incubation, 25 μl of an XTT reaction mixture (XTT at a final concentration of 0.3 mg/ml) were added to each well and the plates were incubated for a further 4 h. The absorbance of each sample was then determined at a wavelength of 490 nm/650 nm as reference. Each compound was tested in duplicate and the results are reported as averages.

[3] = molecular target: T2, IGF-1R (Homo sapiens, UniProt P08069); test: kinase profiler, IGF-1R; type: biochemical; settings: 10 μM compound, 100 μM ATP, mean of % control
T2 construct: purchased Upstate Biotechnologies (kinase profiler service)
Protocol: as §1

[4] = molecular target: T3, PKD2 (Homo sapiens, UniProt Q9BZL6); test: kinase profiler, PKD2; type: biochemical; settings: 10 μM compound, 100 μM ATP, mean of % control
T3 construct: purchased Upstate Biotechnologies (kinase profiler service)
Protocol: as §1

[5] = molecular target: T4, Abl (Homo sapiens, UniProt P00519); test: kinase profiler, Abl; type: biochemical; settings: 10 μM compound, 100 μM ATP, mean of % control
T4 construct: purchased Upstate Biotechnologies (kinase profiler service)
Protocol: as §1

[6] = molecular target: T5, MAPK1 (Homo sapiens, UniProt P27361); test: kinase profiler, MAPK1; type: biochemical; settings: 10 μM compound, 100 μM ATP, mean of % control
T5 construct: purchased Upstate Biotechnologies (kinase profiler service)
T5 sequence (P27361 whole entry): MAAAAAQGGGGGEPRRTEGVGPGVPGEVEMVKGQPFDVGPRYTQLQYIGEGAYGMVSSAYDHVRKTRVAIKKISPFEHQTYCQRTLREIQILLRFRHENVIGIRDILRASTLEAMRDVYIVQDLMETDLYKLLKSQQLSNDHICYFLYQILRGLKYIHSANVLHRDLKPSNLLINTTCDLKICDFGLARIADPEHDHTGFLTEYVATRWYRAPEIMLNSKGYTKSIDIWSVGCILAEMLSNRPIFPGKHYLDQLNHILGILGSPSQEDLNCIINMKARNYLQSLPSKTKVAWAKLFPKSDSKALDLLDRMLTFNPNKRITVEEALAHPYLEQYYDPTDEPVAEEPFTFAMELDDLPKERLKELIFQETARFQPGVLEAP
Protocol: as §1

[7] = molecular target: T6, CDK1/cyclinB (Homo sapiens, UniProt P06493); test: kinase profiler, CDK1/cyclinB; type: biochemical; settings: 10 μM compound, 100 μM ATP, mean of % control
T6 construct: purchased Upstate Biotechnologies (kinase profiler service)
T6 sequence (P06493 whole entry): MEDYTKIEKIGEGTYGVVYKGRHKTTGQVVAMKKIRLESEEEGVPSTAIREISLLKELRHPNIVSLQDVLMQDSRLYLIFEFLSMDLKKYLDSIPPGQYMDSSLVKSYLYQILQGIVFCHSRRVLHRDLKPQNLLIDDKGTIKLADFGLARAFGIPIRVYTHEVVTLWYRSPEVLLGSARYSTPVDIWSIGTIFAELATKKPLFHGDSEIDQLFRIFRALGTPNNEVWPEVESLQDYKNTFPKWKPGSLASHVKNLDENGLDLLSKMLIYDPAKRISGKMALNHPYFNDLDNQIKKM
T6 sequence (P14635 whole entry partner): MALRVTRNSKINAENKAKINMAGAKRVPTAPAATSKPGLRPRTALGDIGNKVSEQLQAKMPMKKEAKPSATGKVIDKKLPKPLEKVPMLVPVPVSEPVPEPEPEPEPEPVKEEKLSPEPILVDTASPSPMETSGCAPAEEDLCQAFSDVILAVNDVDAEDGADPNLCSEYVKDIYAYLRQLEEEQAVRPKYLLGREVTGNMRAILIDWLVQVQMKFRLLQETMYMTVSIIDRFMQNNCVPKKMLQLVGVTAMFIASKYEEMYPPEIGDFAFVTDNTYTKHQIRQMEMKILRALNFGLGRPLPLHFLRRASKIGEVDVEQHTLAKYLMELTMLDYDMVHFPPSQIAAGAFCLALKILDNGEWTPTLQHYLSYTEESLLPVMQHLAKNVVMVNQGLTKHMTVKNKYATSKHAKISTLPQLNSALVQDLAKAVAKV
Protocol: as §1

[8] = molecular target: T7, IKKα (Homo sapiens, UniProt O15111); test: kinase profiler, IKKα; type: biochemical; settings: 10 μM compound, 100 μM ATP, mean of % control
T7 construct: purchased Upstate Biotechnologies (kinase profiler service)
Protocol: as §1

[9] = molecular target: T8, ALK (Homo sapiens, UniProt Q9UM73); test: kinase profiler, ALK; type: biochemical; settings: 10 μM compound, 100 μM ATP, mean of % control
T8 construct: purchased Upstate Biotechnologies (kinase profiler service)
T8 sequence (Q9UM73 19-1620): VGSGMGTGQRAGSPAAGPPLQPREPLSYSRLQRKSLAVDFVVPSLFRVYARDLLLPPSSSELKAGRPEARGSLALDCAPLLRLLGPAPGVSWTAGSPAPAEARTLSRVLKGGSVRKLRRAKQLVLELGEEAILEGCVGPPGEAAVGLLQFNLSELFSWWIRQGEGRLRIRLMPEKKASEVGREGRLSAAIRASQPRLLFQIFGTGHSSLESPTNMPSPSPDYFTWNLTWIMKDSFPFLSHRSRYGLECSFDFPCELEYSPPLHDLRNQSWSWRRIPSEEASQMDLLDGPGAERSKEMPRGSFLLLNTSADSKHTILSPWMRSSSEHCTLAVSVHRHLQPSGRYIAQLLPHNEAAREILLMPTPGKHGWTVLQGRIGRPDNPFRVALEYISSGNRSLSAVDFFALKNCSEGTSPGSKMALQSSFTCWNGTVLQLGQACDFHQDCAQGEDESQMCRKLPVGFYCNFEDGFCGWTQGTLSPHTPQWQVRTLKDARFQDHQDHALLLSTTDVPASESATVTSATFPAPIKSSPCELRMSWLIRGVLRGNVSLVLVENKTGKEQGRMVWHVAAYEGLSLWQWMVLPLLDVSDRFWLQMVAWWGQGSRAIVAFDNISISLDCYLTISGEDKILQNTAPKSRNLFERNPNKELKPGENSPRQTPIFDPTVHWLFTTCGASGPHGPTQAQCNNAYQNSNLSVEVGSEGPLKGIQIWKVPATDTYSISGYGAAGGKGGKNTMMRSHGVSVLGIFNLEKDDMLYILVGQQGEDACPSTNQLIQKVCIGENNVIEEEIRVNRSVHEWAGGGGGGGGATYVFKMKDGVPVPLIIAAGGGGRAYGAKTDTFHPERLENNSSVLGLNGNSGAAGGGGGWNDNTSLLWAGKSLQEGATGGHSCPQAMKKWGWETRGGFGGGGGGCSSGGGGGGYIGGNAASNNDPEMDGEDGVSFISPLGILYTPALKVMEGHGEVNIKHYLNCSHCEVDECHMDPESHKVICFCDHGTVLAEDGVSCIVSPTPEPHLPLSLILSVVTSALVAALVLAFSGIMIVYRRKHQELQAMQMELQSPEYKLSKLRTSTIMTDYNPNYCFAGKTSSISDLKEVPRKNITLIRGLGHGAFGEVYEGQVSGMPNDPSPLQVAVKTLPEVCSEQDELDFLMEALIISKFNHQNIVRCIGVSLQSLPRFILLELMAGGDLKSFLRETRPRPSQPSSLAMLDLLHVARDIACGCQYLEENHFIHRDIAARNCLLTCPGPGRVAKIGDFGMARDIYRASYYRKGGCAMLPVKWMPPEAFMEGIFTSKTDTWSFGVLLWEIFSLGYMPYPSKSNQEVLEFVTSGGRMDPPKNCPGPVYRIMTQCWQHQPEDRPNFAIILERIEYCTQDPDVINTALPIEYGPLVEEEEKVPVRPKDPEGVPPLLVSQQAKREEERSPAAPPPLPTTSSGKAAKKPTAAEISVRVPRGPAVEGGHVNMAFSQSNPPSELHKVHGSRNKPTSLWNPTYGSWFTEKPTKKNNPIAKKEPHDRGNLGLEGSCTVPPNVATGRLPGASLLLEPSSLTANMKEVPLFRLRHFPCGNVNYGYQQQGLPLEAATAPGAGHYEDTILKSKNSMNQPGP
Protocol: as §1

[10] = molecular target: T9, MINK (Homo sapiens, UniProt Q8N4C8); test: kinase profiler, MINK; type: biochemical; settings: 10 μM compound, 100 μM ATP, mean of % control
T9 construct: purchased Upstate Biotechnologies (kinase profiler service)
T9 sequence (Q8N4C8 whole entry): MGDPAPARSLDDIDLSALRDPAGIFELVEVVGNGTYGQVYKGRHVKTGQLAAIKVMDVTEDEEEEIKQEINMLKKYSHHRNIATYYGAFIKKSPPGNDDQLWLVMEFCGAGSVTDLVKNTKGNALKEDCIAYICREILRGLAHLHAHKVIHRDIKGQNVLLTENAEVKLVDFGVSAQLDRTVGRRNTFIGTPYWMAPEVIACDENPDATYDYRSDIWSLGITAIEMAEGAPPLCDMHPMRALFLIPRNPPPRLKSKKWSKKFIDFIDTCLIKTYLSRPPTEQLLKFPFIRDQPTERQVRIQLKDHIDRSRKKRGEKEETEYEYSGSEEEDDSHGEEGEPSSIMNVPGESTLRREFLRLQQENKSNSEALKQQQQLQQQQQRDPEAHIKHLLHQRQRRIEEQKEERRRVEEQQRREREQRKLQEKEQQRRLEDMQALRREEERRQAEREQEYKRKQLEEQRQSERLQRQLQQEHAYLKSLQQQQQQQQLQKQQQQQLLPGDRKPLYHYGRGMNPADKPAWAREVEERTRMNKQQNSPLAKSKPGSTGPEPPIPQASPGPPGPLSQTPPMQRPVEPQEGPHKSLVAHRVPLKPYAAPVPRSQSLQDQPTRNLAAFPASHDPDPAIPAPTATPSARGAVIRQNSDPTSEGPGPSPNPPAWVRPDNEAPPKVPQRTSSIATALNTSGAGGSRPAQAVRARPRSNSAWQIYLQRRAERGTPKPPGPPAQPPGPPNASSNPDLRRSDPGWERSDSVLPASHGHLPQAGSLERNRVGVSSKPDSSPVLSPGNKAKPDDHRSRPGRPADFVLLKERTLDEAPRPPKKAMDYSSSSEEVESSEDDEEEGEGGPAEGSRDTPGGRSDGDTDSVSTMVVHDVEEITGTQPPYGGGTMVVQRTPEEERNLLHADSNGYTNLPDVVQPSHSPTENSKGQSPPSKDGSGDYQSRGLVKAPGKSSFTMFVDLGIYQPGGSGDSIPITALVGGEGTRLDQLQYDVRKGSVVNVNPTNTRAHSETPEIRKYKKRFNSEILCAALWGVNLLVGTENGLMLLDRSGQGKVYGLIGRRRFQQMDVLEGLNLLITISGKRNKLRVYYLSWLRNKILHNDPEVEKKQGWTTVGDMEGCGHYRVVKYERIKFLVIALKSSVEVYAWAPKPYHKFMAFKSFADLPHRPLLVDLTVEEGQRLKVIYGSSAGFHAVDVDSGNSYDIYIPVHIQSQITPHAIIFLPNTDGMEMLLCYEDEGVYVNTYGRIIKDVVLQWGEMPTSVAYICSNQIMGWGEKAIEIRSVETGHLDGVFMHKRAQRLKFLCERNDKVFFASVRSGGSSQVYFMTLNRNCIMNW
Protocol: as §1

[11] = test system: leukemia cell lines; test: NCI/DTP screen, leukemia cell lines; type: cell-based, human
Protocol: The twenty-three compounds of Formula I shown below were evaluated for their antiproliferative effects in a panel of 60 human cancer cell lines as part of the in vitro anticancer screening services provided by the DTP (Developmental Therapeutics Program) of the US National Cancer Institute (NCI) U.S. National Cancer Institute (NCI) of the National Institutes of Health (NIH) in […], Md.
The NCI conducts a standard 48/72 hour 60 cell line assay and an in vitro time course assay as described in Alley et al. (Cancer Res (1988) 48:589). In the standard 60 cell line assay, a minimum of 5 concentrations of the test compound are tested at 10-fold dilutions against 60 cell lines and cell growth is assayed at 48 and 72 hours using a sulphorhodamine B assay. For the time course analysis, tumour cells are treated with the test compound at various time points, then washed and grown in medium free of the test compound until the end of the experiment at 144 hrs. This assay employs 20% FBS to better approximate the minimum c×t (concentrations and times) test compound exposure conditions that are required to achieve activity in vivo. Cell growth is quantified by an MTT assay (similar to the XTT assay described above) and the concentration of the test compound required for growth inhibition is determined. […]

[12] = molecular target: T10, CHK1 (Homo sapiens, UniProt O14757); test: kinase profiler, CHK1; type: biochemical; settings: 10 μM compound, 100 μM ATP, mean of % control
T10 construct: purchased Upstate Biotechnologies (kinase profiler service)
Protocol: as §1

[13] = test system: HT-29 colon cancer cells; test: growth suppression of HT-29 colon cancer cells; type: cell-based; settings: Homo sapiens
[14] = molecular target: T11, Fes (Homo sapiens, UniProt P07332); test: kinase profiler, Fes; type: biochemical; settings: 10 μM compound, 100 μM ATP, mean of % control
T11 construct: purchased Upstate Biotechnologies (kinase profiler service)
Protocol: as §1

[15] = molecular target: T12, ErbB4 (Homo sapiens, UniProt Q15303); test: kinase profiler, ErbB4; type: biochemical; settings: 10 μM compound, 100 μM ATP, mean of % control
T12 construct: purchased Upstate Biotechnologies (kinase profiler service)
Protocol: as §1

[16] = molecular target: T13, BRK (Homo sapiens, UniProt Q13882); test: kinase profiler, BRK; type: biochemical; settings: 10 μM compound, 100 μM ATP, mean of % control
T13 construct: purchased Upstate Biotechnologies (kinase profiler service)
Protocol: as §1

[17] = molecular target: T14, CDK6/cyclinD3 (Homo sapiens, UniProt Q00534); test: kinase profiler, CDK6/cyclinD3; type: biochemical; settings: 10 μM compound, 100 μM ATP, mean of % control
T14 construct: purchased Upstate Biotechnologies (kinase profiler service)
T14 sequence (Q00534 whole entry): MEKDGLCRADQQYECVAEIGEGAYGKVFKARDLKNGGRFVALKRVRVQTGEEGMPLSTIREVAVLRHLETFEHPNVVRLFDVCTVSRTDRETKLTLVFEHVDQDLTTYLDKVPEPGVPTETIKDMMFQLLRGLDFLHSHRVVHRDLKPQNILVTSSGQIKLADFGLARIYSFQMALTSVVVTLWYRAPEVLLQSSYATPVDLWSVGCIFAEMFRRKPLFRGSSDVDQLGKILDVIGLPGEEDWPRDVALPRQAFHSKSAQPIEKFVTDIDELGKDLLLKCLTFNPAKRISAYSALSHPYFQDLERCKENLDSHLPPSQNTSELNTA
T14 sequence (P30281 whole entry partner): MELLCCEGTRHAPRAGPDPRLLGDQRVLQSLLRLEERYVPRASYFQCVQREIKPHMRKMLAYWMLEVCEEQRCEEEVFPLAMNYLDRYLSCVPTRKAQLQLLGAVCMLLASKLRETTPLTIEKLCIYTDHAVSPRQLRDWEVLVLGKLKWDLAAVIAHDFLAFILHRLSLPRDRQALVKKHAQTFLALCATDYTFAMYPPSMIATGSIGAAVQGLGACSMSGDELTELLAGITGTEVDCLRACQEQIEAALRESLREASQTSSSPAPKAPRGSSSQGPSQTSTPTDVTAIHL
Protocol: as §1

[18] = molecular target: T15, CDK2/cyclinA (Homo sapiens, UniProt P24941); test: kinase profiler, CDK2/cyclinA; type: biochemical; settings: 10 μM compound, 100 μM ATP, mean of % control
T15 construct: purchased Upstate Biotechnologies (kinase profiler service)
Protocol: as §1

[19] = molecular target: T16, MKK6 (Homo sapiens, UniProt P52564); test: kinase profiler, MKK6; type: biochemical; settings: 10 μM compound, 100 μM ATP, mean of % control
T16 construct: purchased Upstate Biotechnologies (kinase profiler service)
T16 sequence (P52564 whole entry): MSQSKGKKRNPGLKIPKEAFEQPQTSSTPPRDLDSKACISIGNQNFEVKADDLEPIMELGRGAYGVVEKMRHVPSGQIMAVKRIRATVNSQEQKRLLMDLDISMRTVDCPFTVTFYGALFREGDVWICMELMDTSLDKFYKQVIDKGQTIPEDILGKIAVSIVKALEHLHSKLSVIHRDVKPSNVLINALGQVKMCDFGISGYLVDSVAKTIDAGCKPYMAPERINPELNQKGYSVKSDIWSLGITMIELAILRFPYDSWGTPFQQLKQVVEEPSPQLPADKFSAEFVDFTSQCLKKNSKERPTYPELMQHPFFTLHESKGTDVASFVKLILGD
Protocol: as §1

[20] = molecular target: T17, Fyn (Homo sapiens, UniProt P06241); test: kinase profiler, Fyn; type: biochemical; settings: 10 μM compound, 100 μM ATP, mean of % control
T17 construct: purchased Upstate Biotechnologies (kinase profiler service)
Protocol: as §1

Brc1ccc2[nH]cc(-c3nc4c5ccccc5c5ccccc5c4[nH]3)c2c1 [Compound 45]
activity at 10 µM [1]: 129%
viability at 25 µM ([2]; 25 μM compound): 88.9%
viability at 100 µM ([2]; 100 μM compound): 35%
activity at 10 µM [3]: 80%
activity at 10 µM [4]: 52%
activity at 10 µM [5]: 107%
activity at 10 µM [6]: 85%
activity at 10 µM [7]: 156%
activity at 10 µM [8]: 150%
activity at 10 µM [9]: 60%
activity at 10 µM [10]: 91%
GI50 ([11]; Homo sapiens, leukemia cell lines (FIG. 10B)): 3.4 µM
TGI (total growth inhibition) ([11]; leukemia cell lines, 100 μM the highest concentration used (FIG. 10C)): > 100 µM
activity at 10 µM [12]: 111%
GI50 [13]: 2.6 µM
activity at 10 µM [14]: 99%
activity at 10 µM [15]: 73%
activity at 10 µM [16]: 112%
activity at 10 µM [17]: 87%
activity at 10 µM [18]: 95%
activity at 10 µM [19]: 86%
activity at 10 µM [20]: 103%
